# Reference: PubChem BioAssay AID2060509 (Molecular Pharmacology Branch, DTP, NCI, 2025)
# Tested on: 485176-168-R4-J1-PDC spheroids with HUVEC/MSC, viability
# Assay: Anticancer human tumor 485176-168-R4-J1-PDC patient-derived pancreatic adenocarcinoma cell line growth inhibition [GQUAD]
# Conditions: for IC50: curve of first compound; for viability, T/C: stronger effect = lower value
# Excerpt: DNA G-quadruplex Stabilizer Agents in Combinations in Complex Spheroids
# A high-throughput screen of multi-cell type tumor spheroids was designed to identify active combinations of DNA G-quadruplex stabilizer agents and targeted small molecules. Complex spheroids include a stromal component modeled by human endothelial cells (HUVEC) and fibroblasts modeled by human mesenchymal stem cells (MSCs). The concentration ranges selected for each drug and investigational agent were based upon clinically achievable concentrations if the clinical Cmax of the agent was known.
# Compounds. The drugs and investigational agents: pidnarulex (CX-5461; NSC782164), APTO-253 (NSC789042), BRACO-19 (NSC847499), peposertib (NSC802822), ceralasertib (NSC780249), elimusertib (NSC800525), camonsertib (NSC841442), AZD-1390 (NSC803789), olaparib (NSC753686), talazoparib (NSC767125), ART-558 (NSC835418), sotorasib (NSC818433), MRTX-1133 (NSC836407), SN-38 (NSC673596), topotecan (NSC609699), etoposide (NSC141540), doxorubicin (NSC123127), gemcitabine (NSC613327), 5-fluorouracil (NSC19893), paclitaxel (NSC125973), vemurafenib (NSC761431), panobinostat (NSC761190), R-306465 (JNJ-16241199; NSC773264), adavosertib (NSC754352), TP-3654 (NSC805149), carboplatin (NSC241240), KSQ-4279 (NSC840948), and staurosporine (NSC755774) were obtained from the National Cancer Institute (NCI) Developmental Therapeutics Program Chemical Repository (34). The FDA-approved anticancer drug set is available from the NCI Developmental Therapeutics Program. […] The stock solutions were prepared in dimethyl sulfoxide (DMSO, Sigma-Aldrich, St. Louis, MO, cat. D2650) at 800-fold the tested concentration and stored at -70 degrees C prior to their use. All drugs and investigational agents were tested over a range starting from a high concentration at or near the clinical Cmax and decreasing in half-log increments. If the clinical Cmax for an agent had not been determined, the highest concentration tested was 10 microM.
# 2.3 Cell Culture. All cells were maintained in an incubator at 37 degrees C and 5% CO2 with 95% humidity. The PDC lines were cultured according to standard operating procedures established by the NCI PDMR. All PDCs were thawed and cultured in Matrigel-coated flasks prepared with a working solution of 1X Ham's F-12 nutrient mix, without supplementation (Invitrogen, cat. 11765054), 100 U/mL penicillin-streptomycin (Invitrogen, cat. 15140122), and 2.5% Matrigel (Corning Inc., cat. 354248) for the first three passages. The 857933-349-R-J2-PDC line was cultured in 6C/Colon 1B media, which includes advanced DMEM/F-12 (Thermo Fisher Scientific, cat. 12634028), 10 mM HEPES (Thermo Fisher Scientific, cat. 15630080), 1X GlutaMAX supplement (Thermo Fisher Scientific, cat. 35050061), 0.1 mg/mL primocin (InvivoGen, cat. ant-pm-2), 10% defined fetal bovine serum, heat inactivated (HyClone Laboratories Inc., cat. SH30070.03HI), 50% L-WRN conditioned media (ATCC, cat. CRL-3276), 1.25 mM N-Acetyl-L-cysteine (Sigma-Aldrich, cat. A9165), 10 mM nicotinamide (Sigma-Aldrich, cat. N0636), 1X B-27 supplement (Thermo Fisher Scientific, cat. 17504044), 1X N-2 supplement (Thermo Fisher Scientific, cat. 17502048), 10 microM Y-27632 dihydrochloride (Tocris Bioscience, cat. 1254), and 50 ng/mL human EGF recombinant protein (Thermo Fisher Scientific, cat. PHG0311). The 485176-168-R4-J1-PDC line was cultured in Panc media, which includes all 6C/Colon 1B media components plus 100 ng/mL human FGF-10 (Thermo Fisher Scientific, cat. 100-26), 500 nM SB-431542 (Selleckchem, cat. S1067), and gastrin (Tocris, cat. 3006).
# […]
# [1] = second compound 0.0316 µM, first compound 0.0316 µM
# [2] = second compound 0.0316 µM, first compound 0.1 µM
# [3] = second compound 0.0316 µM, first compound 0.316 µM
# [4] = second compound 0.0316 µM, first compound 1 µM
# [5] = second compound 0.0316 µM, first compound 3.16 µM
# [6] = second compound 0.0316 µM, first compound 10 µM
# [7] = second compound 0.1 µM, first compound 0.0316 µM
# [8] = second compound 0.1 µM, first compound 0.1 µM
# [9] = second compound 0.1 µM, first compound 0.316 µM
# [10] = second compound 0.1 µM, first compound 1 µM
# [11] = second compound 0.1 µM, first compound 3.16 µM
# [12] = second compound 0.1 µM, first compound 10 µM
# [13] = second compound 0.316 µM, first compound 0.0316 µM
# [14] = second compound 0.316 µM, first compound 0.1 µM
# [15] = second compound 0.316 µM, first compound 0.316 µM
# [16] = second compound 0.316 µM, first compound 1 µM
# [17] = second compound 0.316 µM, first compound 3.16 µM
# [18] = second compound 0.316 µM, first compound 10 µM
# [19] = second compound 1 µM, first compound 0.0316 µM
# [20] = second compound 1 µM, first compound 0.1 µM
# [21] = second compound 1 µM, first compound 0.316 µM
# [22] = second compound 1 µM, first compound 1 µM
# [23] = second compound 1 µM, first compound 3.16 µM
# [24] = second compound 1 µM, first compound 10 µM
# [25] = second compound 3.16 µM, first compound 0.0316 µM
# [26] = second compound 3.16 µM, first compound 0.1 µM
# [27] = second compound 3.16 µM, first compound 0.316 µM
# [28] = second compound 3.16 µM, first compound 1 µM
# [29] = second compound 3.16 µM, first compound 3.16 µM
# [30] = second compound 3.16 µM, first compound 10 µM
# [31] = second compound 10 µM, first compound 0.0316 µM
# [32] = second compound 10 µM, first compound 0.1 µM
# [33] = second compound 10 µM, first compound 0.316 µM
# [34] = second compound 10 µM, first compound 1 µM
# [35] = second compound 10 µM, first compound 3.16 µM
# [36] = second compound 10 µM, first compound 10 µM
# 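Note: spheroids exposed to compounds for seven days before readout.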
# 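Throughout, for viability, T/C: percent viability relative to DMSO vehicle control wells as 100%.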
structure (smiles),measurement,setting,value
CC1COCCN1c1cc(C2(O)CC3CCC(C2)O3)c2cnn(-c3ccn[nH]3)c2n1 (centres undefined) + Cc1cnc(CNC(=O)c2c(=O)c3ccc(N4CCCN(C)CC4)nc3n3c2sc2ccccc23)cn1,IC50,second compound 0.0316 µM,< 31.6 nM
same,IC50,second compound 0.1 µM,< 31.6 nM
same,IC50,second compound 0.316 µM,< 31.6 nM
same,IC50,second compound 1 µM,< 31.6 nM
same,IC50,second compound 3.16 µM,< 31.6 nM
same,IC50,second compound 10 µM,< 31.6 nM
same,"viability, T/C",[1],48.9%
same,"viability, T/C",[2],17.3%
same,"viability, T/C",[3],11%
same,"viability, T/C",[4],8.41%
same,"viability, T/C",[5],10.1%
same,"viability, T/C",[6],8.06%
same,"viability, T/C",[7],22.6%
same,"viability, T/C",[8],14.5%
same,"viability, T/C",[9],9.1%
same,"viability, T/C",[10],9.8%
same,"viability, T/C",[11],11.5%
same,"viability, T/C",[12],8.77%
same,"viability, T/C",[13],15.5%
same,"viability, T/C",[14],11.7%
same,"viability, T/C",[15],10.3%
same,"viability, T/C",[16],9.55%
same,"viability, T/C",[17],10.9%
same,"viability, T/C",[18],9.41%
same,"viability, T/C",[19],13.8%
same,"viability, T/C",[20],12.3%
same,"viability, T/C",[21],9.3%
same,"viability, T/C",[22],7.89%
same,"viability, T/C",[23],9.58%
same,"viability, T/C",[24],7.69%
same,"viability, T/C",[25],17.7%
same,"viability, T/C",[26],11.3%
same,"viability, T/C",[27],10.5%
same,"viability, T/C",[28],9.3%
same,"viability, T/C",[29],8.86%
same,"viability, T/C",[30],8.53%
same,"viability, T/C",[31],13.8%
same,"viability, T/C",[32],11.2%
same,"viability, T/C",[33],10.2%
same,"viability, T/C",[34],9.98%
same,"viability, T/C",[35],9.05%
same,"viability, T/C",[36],7.21%
CCCS(=O)(=O)Nc1ccc(F)c(C(=O)c2c[nH]c3ncc(-c4ccc(Cl)cc4)cc23)c1F + Cc1cnc(CNC(=O)c2c(=O)c3ccc(N4CCCN(C)CC4)nc3n3c2sc2ccccc23)cn1,IC50,second compound 0.0316 µM,> 10000 nM
same,IC50,second compound 0.1 µM,> 10000 nM
same,IC50,second compound 0.316 µM,> 10000 nM
same,IC50,second compound 1 µM,< 31.6 nM
same,IC50,second compound 3.16 µM,< 31.6 nM
same,IC50,second compound 10 µM,< 31.6 nM
same,"viability, T/C",[1],95.8%
same,"viability, T/C",[2],77.4%
same,"viability, T/C",[3],82.9%
same,"viability, T/C",[4],81.8%
same,"viability, T/C",[5],92.8%
same,"viability, T/C",[6],66%
same,"viability, T/C",[7],63.8%
same,"viability, T/C",[8],68.2%
same,"viability, T/C",[9],60.2%
same,"viability, T/C",[10],80.3%
same,"viability, T/C",[11],76.3%
same,"viability, T/C",[12],49.7%
same,"viability, T/C",[13],55.9%
same,"viability, T/C",[14],55.3%
same,"viability, T/C",[15],51.2%
same,"viability, T/C",[16],56.4%
same,"viability, T/C",[17],57.8%
same,"viability, T/C",[18],49.9%
same,"viability, T/C",[19],45.4%
same,"viability, T/C",[20],56.1%
same,"viability, T/C",[21],47%
same,"viability, T/C",[22],41.4%
same,"viability, T/C",[23],48.9%
same,"viability, T/C",[24],35.4%
same,"viability, T/C",[25],45.1%
same,"viability, T/C",[26],43.5%
same,"viability, T/C",[27],43.6%
same,"viability, T/C",[28],44.3%
same,"viability, T/C",[29],43.9%
same,"viability, T/C",[30],40.9%
same,"viability, T/C",[31],39.1%
same,"viability, T/C",[32],36.3%
same,"viability, T/C",[33],30.1%
same,"viability, T/C",[34],37.2%
same,"viability, T/C",[35],39.6%
same,"viability, T/C",[36],35.4%
